Consider five molecules from patent publication EP4678638A1, “NEW E3 UBIQUITIN LIGASE LIGAND, PROTEIN DEGRADATION AGENT AND USE THEREOF” (priority 2023, dated 2024).

For one assay, the system named is H1975. In words: CCK-8 proliferation, NCI-H1975 (H1975). Type of assay: cell-based, Human. The conditions noted are these: Homo sapiens, NCI-H1975; CCK-8; 96 hours; read-out: Inhibitory activity (IC50) on tumor cell proliferation, H1975. An outline of the steps: (§1)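 Tumor cells were cultured at 37°C with 5% CO2, seeded, and after 24h treated with compounds at 10 concentrations starting at 10µM (5-fold serial dilutions).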

The test system of the next assay is MCF7. In words: CCK-8 proliferation, MCF7 (MCF-7). Type of assay: cell-based. The note with it: Homo sapiens, MCF7; CCK-8; read-out: Inhibitory activity (IC50) on tumor cell proliferation, MCF7. The procedure, abridged: as §1
A further assay has as its system MV-4-11. The assay is described as follows: CCK-8 proliferation, MV-4-11. The format is cell-based, Human. The note with it: Homo sapiens, MV4-11; CCK-8; 72 or 96 hours; read-out: Inhibitory activity (IC50) on tumor cell proliferation, MV-4-11. The procedure, abridged:
as §1

The next assay deals with SR. In words: CCK-8 proliferation, SR. Type of assay: cell-based, Human. The note with it: Homo sapiens, SR; CCK-8; 72 hours; read-out: Inhibitory activity (IC50) on tumor cell proliferation, SR. The procedure, abridged:
as §1

A further assay deals with 22RV1. In words: CCK-8 proliferation, 22RV1. The conditions noted are these: Homo sapiens, 96 hours, read-out: Inhibitory activity (IC50) on tumor cell proliferation, 22RV1. Type of assay: cell-based. As for the experimental part: (§2) The tumor cells used herein were cultured in a cell culture medium listed in table A1 at 37°C in an incubator with 5% CO2. Prior to experimentation, all cell lines used were correctly identified by STR profiling, and tested negative for mycoplasma contamination using a mycoplasma detection kit through routine screenings. Table A1. Tumor cells and cell culture medium used in the present disclosure
(§3) IC50 values of the compounds of the present disclosure (including the compounds in Table 1, and compounds of examples) were measured using the Meilun Cell Counting Kit-8 kit from Dalian Meilun Biotech Co., Ltd. Assay details are as follows: tumor cells were seeded in a 96-well plate at a density listed in Table A2. After 24h, 100 µL of the inoculated cells were treated with 0.5µL of the compounds of the present disclosure (including the compounds in Tables 1 and 2, and compounds of examples) at 10 different successively decreasing concentrations (starting at the highest concentration of 10µM; 5-fold serial dilutions). After the cells were treated with the compounds of the present disclosure for a period of time, the cell viability detection reagent was added to the culture medium for cell viability assessment according to the instructions provided with the CCK-8 kit. […] The growth inhibition of the compounds of the present disclosure on cells was plotted by Prism Graphpad software, and the IC50 values of the compounds of the present disclosure were calculated therefrom. […] Seeding protocol and treatment time for tumor cells

The next assay has as its system CCRF-CEM. The assay is described as follows: CCK-8 proliferation, CCRF-CEM. The format is cell-based, Human. The conditions noted are these: Homo sapiens, CCRF-CEM; CCK-8; 96 hours; read-out: Inhibitory activity (IC50) on tumor cell proliferation, CCRF-CEM. The procedure, abridged:
as §1

The test system of another assay is Kasumi-1. The assay is described as follows: CCK-8 proliferation, Kasumi-1. Type of assay: cell-based, Human. The note with it: Homo sapiens, Kasumi 1, 72 hours, read-out: Inhibitory activity (IC50) on tumor cell proliferation, Kasumi-1. An outline of the steps: as §1
The subject of another assay is MM.1S. The assay is described as follows: CCK-8 proliferation, MM.1S. Type of assay: cell-based. The note with it: Homo sapiens, MM1.S; CCK-8; 72 hours; read-out: Inhibitory activity (IC50) on tumor cell proliferation, MM1S. An outline of the steps:
as §1

The target of a further assay is T1, CDK4 (Homo sapiens, UniProt P11802).
T1 construct: evaluate the effects of the compounds of the present disclosure on the expression of target proteins in cells; endogenous in cells; host or cells: MDA-MB-231
T1 sequence (P11802 whole entry): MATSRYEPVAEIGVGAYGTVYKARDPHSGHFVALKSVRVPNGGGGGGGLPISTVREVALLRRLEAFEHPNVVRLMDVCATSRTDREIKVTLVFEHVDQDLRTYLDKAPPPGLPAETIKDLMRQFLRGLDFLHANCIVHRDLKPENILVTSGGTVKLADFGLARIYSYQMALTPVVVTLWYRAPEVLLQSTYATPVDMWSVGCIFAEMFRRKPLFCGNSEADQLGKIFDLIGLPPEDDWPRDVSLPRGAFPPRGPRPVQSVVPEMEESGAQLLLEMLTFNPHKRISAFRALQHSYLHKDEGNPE
The assay is described as follows: Western blot degradation of CDK4 (MDA-MB-231 Cell). Type of assay: cell-based. The conditions noted are these: Table D3. An outline of the steps:
(§4)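 After compound exposure, cells were harvested and lysates run on SDS-PAGE, transferred to nitrocellulose and probed with antibodies. Remaining target (%) was computed from band grayscale relative to an internal control protein and normalised; degradation (%) was 100% minus that.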
(Immunoblotting shows a protein as a band on a membrane.)

For another assay, the target named is T2, CDK6 (Homo sapiens, UniProt Q00534).
T2 construct: evaluate the effects of the compounds of the present disclosure on the expression of target proteins in cells; endogenous in cells; host or cells: MDA-MB-231
T2 sequence (Q00534 whole entry): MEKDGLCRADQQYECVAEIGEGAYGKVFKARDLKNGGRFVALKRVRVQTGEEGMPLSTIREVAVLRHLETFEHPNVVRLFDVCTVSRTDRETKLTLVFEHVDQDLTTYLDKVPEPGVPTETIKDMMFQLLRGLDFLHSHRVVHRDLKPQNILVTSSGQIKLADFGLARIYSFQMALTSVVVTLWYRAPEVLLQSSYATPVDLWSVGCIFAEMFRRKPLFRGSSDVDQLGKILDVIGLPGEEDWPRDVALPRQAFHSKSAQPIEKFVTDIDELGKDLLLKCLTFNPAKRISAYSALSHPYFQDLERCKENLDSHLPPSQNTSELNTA
In words: Western blot degradation of CDK6 (MDA-MB-231 Cell). The format is cell-based. The note with it: Table D3. An outline of the steps: as §4

A further assay deals with MM.1R. The assay is described as follows: CCK-8 proliferation, MM.1R. Type of assay: cell-based. The conditions noted are these: CCK-8, 72 hours, read-out: Inhibitory activity (IC50) on tumor cell proliferation, MM.1R. The procedure: as §2, §3

In the case of `Cc1nc2c(F)cc(-c3nc(Nc4ccc(N5CCC(N(C)Cc6cccc(N7CCC(=O)NC7=O)c6)CC5)cn4)ncc3F)cc2n1C(C)C` [GT-06839, 1-(3-(((1-(6-((5-fluoro-4-(4-fluoro-1-isopropyl-2-methyl-1H-benzo[d]imidazol-6-yl)pyrimidin-2-yl)amino)pyridin-3-yl)piperidin-4-yl)(methyl)amino)methyl)phenyl)dihydropyrimidine-2,4(1H,3H)-dione], the IC50 in the assay on H1975 is 0.1 to 0.5 µM; in the assay with MCF7, 0.05 to 0.1 µM; in the assay with MV-4-11, 0.01 to 0.05 µM; in the assay with SR it was 0.05 to 0.1 µM; in the assay on 22RV1, 0.01 to 0.05 µM; with CCRF-CEM it was 0.1 to 0.5 µM. Besides, the IC50 in the assay on Kasumi-1 was in the range of 0.01 to 0.05 µM; in the assay on MM.1S, 0.1 to 0.5 µM. Besides, on CDK4, the “Degradation of substrate protein CDK4 (substrate protein remaining %)” value is on record as “A (A is defined as 0% ≤ substrate protein remaining % ≤ 80%)”. In addition, the “Degradation of substrate protein CDK6 (substrate protein remaining %)” value on CDK6 is “A (A is defined as 0% ≤ substrate protein remaining % ≤ 80%)”.

Consider `Cc1nc2c(F)cc(-c3nc(Nc4ccc(N5CCC(N(C)Cc6ccc(N7CCC(=O)NC7=O)cn6)CC5)cn4)ncc3F)cc2n1C(C)C` [GT-06840, 1-(6-(((1-(6-((5-fluoro-4-(4-fluoro-1-isopropyl-2-methyl-1H-benzo[d]imidazol-6-yl)pyrimidin-2-yl)amino)pyridin-3-yl)piperidin-4-yl)(methyl)amino)methyl)pyridin-3-yl)dihydropyrimidine-2,4(1H,3H)-dione], for which the IC50 was in the range of 0.1 to 0.5 µM in the assay on H1975; 0.001 to 0.01 µM with MCF7; 0.05 to 0.1 µM in the assay with MV-4-11; 0.05 to 0.1 µM in the assay with SR; 0.05 to 0.1 µM in the assay on 22RV1; 0.1 to 0.5 µM in the assay on CCRF-CEM. Further, the IC50 in the assay with Kasumi-1 and with MM.1S was 0.1 to 0.5 µM each time. Also, the “Degradation of substrate protein CDK4 (substrate protein remaining %)” value on CDK4 is listed as “A (A is defined as 0% ≤ substrate protein remaining % ≤ 80%)”. The “Degradation of substrate protein CDK6 (substrate protein remaining %)” value at CDK6 is “B (B is defined as substrate protein remaining % > 80%)”.

Turning to `Cc1nc2c(F)cc(-c3nc(Nc4ccc(N5CCC(N(C)Cc6ccc(N7CCC(=O)NC7=O)nc6)CC5)cn4)ncc3F)cc2n1C(C)C` [GT-06841, 1-(5-(((1-(6-((5-fluoro-4-(4-fluoro-1-isopropyl-2-methyl-1H-benzo[d]imidazol-6-yl)pyrimidin-2-yl)amino)pyridin-3-yl)piperidin-4-yl)(methyl)amino)methyl)pyridin-2-yl)dihydropyrimidine-2,4(1H,3H)-dione], the IC50 with H1975 was 0.1 to 0.5 µM; in the assay with MCF7 it was 0.05 to 0.1 µM; with MV-4-11, 0.01 to 0.05 µM; in the assay on SR it was 0.01 to 0.05 µM; with 22RV1, 0.01 to 0.05 µM; in the assay on CCRF-CEM it was 0.1 to 0.5 µM. The IC50 lay in the range of 0.05 to 0.1 µM in the assay on Kasumi-1 and 0.1 to 0.5 µM in the assay on MM.1S. Moreover, the “Degradation of substrate protein CDK4 (substrate protein remaining %)” value on CDK4 is given as “A (A is defined as 0% ≤ substrate protein remaining % ≤ 80%)”. Further, at CDK6, the “Degradation of substrate protein CDK6 (substrate protein remaining %)” value is given as “A (A is defined as 0% ≤ substrate protein remaining % ≤ 80%)”.

With `CC(=O)c1c(C)c2cnc(Nc3ccc(N4CCNCC4)cn3)nc2n(C2CCCC2)c1=O` [Palbociclib, reference compound], the IC50 is 5 to 10 µM in the assay on H1975; greater than 10 µM in the assay on MM.1R; 1 to 5 µM in the assay with MCF7; 0.1 to 0.5 µM with MV-4-11; 1 to 5 µM in the assay with SR; 0.1 to 0.5 µM with 22RV1. Also, the results for the IC50 in the assay on CCRF-CEM, with Kasumi-1 and in the assay on MM.1S were 1 to 5 µM, 1 to 5 µM and greater than 10 µM, respectively.

On to `CN(C)C(=O)c1cc2cnc(Nc3ccc(N4CCNCC4)cn3)nc2n1C1CCCC1` [Ribociclib, reference compound], for which the IC50 in the assay with H1975 was greater than 10 µM; in the assay with MM.1R, greater than 10 µM; in the assay with MCF7, 5 to 10 µM; in the assay on MV-4-11 it was 5 to 10 µM; in the assay with SR it was 5 to 10 µM; with 22RV1 it was 1 to 5 µM. Besides, the figures for the IC50 in the assay with CCRF-CEM, in the assay on Kasumi-1 and in the assay with MM.1S were greater than 10 µM, 1 to 5 µM and 5 to 10 µM, respectively.
